{"source": "paper PMC7658068", "about": "“Effects of a novel variant of the yeast γ-glutamyl kinase Pro1 on its enzymatic activity and sake brewing” (Journal of Industrial Microbiology & Biotechnology, 2020)", "key": {"[1]": {"biological_target": "T1, γ-glutamyl kinase Pro1 (GK) (Saccharomyces cerevisiae, UniProt P32264)", "T1 sequence (P32264 1-428)": "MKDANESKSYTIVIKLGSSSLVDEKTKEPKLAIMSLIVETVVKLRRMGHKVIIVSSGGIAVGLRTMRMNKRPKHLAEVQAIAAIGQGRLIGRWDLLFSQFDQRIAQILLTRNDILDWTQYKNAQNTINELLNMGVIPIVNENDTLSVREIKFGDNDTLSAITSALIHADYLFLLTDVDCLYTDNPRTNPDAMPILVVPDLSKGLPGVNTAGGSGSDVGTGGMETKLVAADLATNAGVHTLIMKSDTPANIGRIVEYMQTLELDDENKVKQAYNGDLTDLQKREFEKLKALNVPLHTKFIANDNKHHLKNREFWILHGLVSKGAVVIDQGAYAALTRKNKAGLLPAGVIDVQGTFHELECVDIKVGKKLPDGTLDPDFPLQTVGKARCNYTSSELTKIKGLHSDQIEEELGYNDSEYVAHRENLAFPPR", "assay": "PK/LDH-coupled ADP assay, NADH at […] nm", "format": "biochemical", "design": "full-length ORF in pET15b (NdeI/XhoI), His-tag, E. coli BL21(DE3), Ni Sepharose; tag removal not mentioned", "conditions": "400 mM sodium glutamate, 5 mM ATP, 10 mM MgCl2, 100 mM HEPES-NaOH pH 7.4, 30 °C; no proline"}, "[2]": {"biological_target": "T1, γ-glutamyl kinase Pro1 (GK)", "conditions": "400 mM sodium glutamate, 5 mM ATP, 10 mM MgCl2, 100 mM HEPES-NaOH pH 7.4, 30 °C; allosteric feedback inhibition"}, "[3]": {"biological_target": "γ-glutamyl kinase Pro1 (GK) (Saccharomyces cerevisiae, UniProt P32264, I150T)", "sequence (P32264 whole entry I150T)": "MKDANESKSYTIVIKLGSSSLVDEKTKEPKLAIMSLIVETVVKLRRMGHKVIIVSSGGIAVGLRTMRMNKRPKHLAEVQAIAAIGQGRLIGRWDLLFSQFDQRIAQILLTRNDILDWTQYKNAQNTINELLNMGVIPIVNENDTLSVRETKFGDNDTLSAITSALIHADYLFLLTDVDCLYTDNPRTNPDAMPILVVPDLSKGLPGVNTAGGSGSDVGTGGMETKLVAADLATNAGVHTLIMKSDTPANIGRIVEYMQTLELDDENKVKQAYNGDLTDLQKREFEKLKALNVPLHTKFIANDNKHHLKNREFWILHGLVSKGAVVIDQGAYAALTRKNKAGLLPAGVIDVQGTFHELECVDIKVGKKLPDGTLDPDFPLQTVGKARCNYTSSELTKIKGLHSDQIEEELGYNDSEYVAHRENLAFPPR", "assay": "biochemical", "conditions": "read-out: relative activity at 100 mM proline"}, "[4]": {"biological_target": "γ-glutamyl kinase Pro1 (GK) (Saccharomyces cerevisiae, UniProt P32264, Q79H)", "sequence (P32264 whole entry Q79H)": "as the sequence (P32264 whole entry I150T) above, with Q79H, T150I counted along it", "assay": "biochemical", "conditions": "read-out: relative activity at 100 mM proline"}}}
{"smiles": "Nc1ncnc2c1ncn2[C@@H]1O[C@H](COP(=O)(O)OP(=O)(O)OP(=O)(O)O)[C@@H](O)[C@H]1O", "note": "[ATP]", "values": [{"measurement": "PK/LDH-coupled ADP assay, NADH at 340 nm", "setting": "[1]", "value": "GK activity was measured by the production of ADP in an enzyme-coupled system"}]}
{"smiles": "N[C@@H](CCC(=O)O)C(=O)O", "note": "[glutamate]", "values": [{"measurement": "PK/LDH-coupled ADP assay, NADH at 340 nm", "setting": "[1]", "value": "the reaction was initiated by the addition of sodium glutamate"}]}
{"smiles": "O=C(O)[C@@H]1CCCN1", "note": "[proline]", "values": [{"measurement": "relative activity with 0-5 mM proline", "setting": "[2]", "value": "in the presence of proline, the GK activity of WT was markedly inhibited"}, {"measurement": "activity at 100000 µM", "setting": "[3]", "value": 59, "unit": "%"}, {"measurement": "activity at 100000 µM", "setting": "[4]", "value": 96, "unit": "%"}]}
